# Test results: patent US12103951B2, “Use of CGRP receptor antagonists in neuroprotection and neurological disorders” (priority 2016, dated 2024)
# Entries after “also recorded” stand apart in the source; their conditions may differ.
# Legend:
# retinal astrocytes = test: Rat laser glaucoma model: total number of GFAP-immunoreactive cells (retinal astrocytes); assay type: in vivo, Wistar rats; details: between the groups (CGRP antagonist vs vehicle)
# Protocol: In this study, Wistar rats (n=12) were used for the experiments. The neuroprotective properties of compounds were investigated in a rat laser model of glaucoma. Rats were divided into two groups of six rats each. One group served as a placebo control receiving vehicle (NaCl) injections, and the other was treated with a peptide CGRP receptor antagonist (SEQ ID NO: 1). For all 12 rats, the contralateral, untreated eye served as a naïve undiseased control. The vehicle control and test compound (20 mg/kg) were administered systemically (IP) daily for the whole follow-up period of two weeks. The animals were sacrificed using transcardial perfusion. The retinal whole-mounts were then immuno-stained against retinal ganglion cell (RGC) marker Brn3a and astrocytic marker GFAP (glial fibrillary acidic protein). The number of Brn3a positive profiles was manually counted from retinal images taken from central and peripheral parts of retina. The total number of GFAP-immunoreactive cells (retinal astrocytes) was estimated using stereology. […]
# 1. Quantification of Brn3a and GFAP-positive cells from retinal whole mounts manually and using stereology.
# Retinal whole mounts were immuno-stained against RGC (Brn3a) and astrocytic (GFAP) antibodies and the number of cells was quantified either manually (Brn3a) or as previously described (Kalesnykas et al., 2008). […]
# optic nerve axons = test: Rat laser glaucoma model: total number of optic nerve axons (stereology); assay type: in vivo, Wistar rats; details: IP daily for two weeks; for total number of optic nerve axons, lasered vs contralateral control eyes: paired sample t-test, P>0.05
# Protocol: In this study, Wistar rats (n=12) were used for the experiments. The neuroprotective properties of compounds were investigated in a rat laser model of glaucoma. Rats were divided into two groups of six rats each. One group served as a placebo control receiving vehicle (NaCl) injections, and the other was treated with a peptide CGRP receptor antagonist (SEQ ID NO: 1). For all 12 rats, the contralateral, untreated eye served as a naïve undiseased control. The vehicle control and test compound (20 mg/kg) were administered systemically (IP) daily for the whole follow-up period of two weeks. The animals were sacrificed using transcardial perfusion. The retinal whole-mounts were then immuno-stained against retinal ganglion cell (RGC) marker Brn3a and astrocytic marker GFAP (glial fibrillary acidic protein). The number of Brn3a positive profiles was manually counted from retinal images taken from central and peripheral parts of retina. The total number of GFAP-immunoreactive cells (retinal astrocytes) was estimated using stereology. The total number of RGC axons in the optic nerve was estimated using stereology.
# The rat glaucoma model was induced unilaterally by laser photocoagulation of episcleral veins as previously described (Kalesnykas et al., 2007). Anesthesia was performed using sodium pentobarbital (30 mg/kg). […]
# 2. Quantification of optic nerve axons using stereology. […]
# After the optic nerves were post-fixed in 4% PFA (in 0.1M phosphate buffer, pH 7.4) solution, they were placed in 1% osmium, dehydrated in ascending alcohol concentration and placed in 1% uranyl acetate in 100% ethanol for 1 hour (Cone et al., 2012). […] Briefly, axons were counted manually using the Stereo Investigator software (MicroBrightField, VT, USA). […]
# Quantitative data was graphed, analyzed and presented as mean±standard deviation (SD) or standard error of mean (SEM). Parametric data was analyzed using paired-samples T-test (the contralateral eye of the same animal serves as control). Non-parametric data was analyzed using Mann-Whitney U test (comparison of 2 groups) or Wilcoxon paired-samples T-test. […]
# [1] = 14-day subcutaneous rat study: mortality, clinical signs, body weight, feed consumption; assay type: in vivo, Sprague Dawley rats; details: s.c. daily 14 days
# Protocol: Sprague Dawley rats were administered the CGRP antagonist daily via the subcutaneous route for a period of 14 days, resulting in the surprising effect of LDL lowering. Fifty six animals (36 males and 20 females) were distributed into four groups (consisting each of 5 males and 5 females per group and 4 extra males each for testing group as backups). The groups were as follows: G1—Control, G2—Low dose—100 mcg/kg, G3—Intermediate dose—300 mcg/kg, G4—High dose—1000 mcg/kg.
# Rats from the treatment groups were dosed subcutaneously with CGRP receptor antagonists (SEQ ID NO: 1) reconstituted with normal saline at different dose levels per treatment group for 14 days. Control animals were dosed with the vehicle alone.
# The acclimatization period was, at a minimum, 7 days. For the randomization, animals were selected and grouped based on stratified randomization by using body weights one day before dosing (day 0) using an Excel program. The route of administration of the antagonist was by a subcutaneous method. The frequency of the administration was daily for fourteen days. The dose volume was set at 5 ml/kg of body weight. The duration of the treatment was fourteen days with administration occurring approximately at the same time each day.
# The following observations were recorded: • 1. […] Body Weight • Body weight was recorded on day 1, 7, 11 and 15. • 3. Feed Consumption • Feed consumption was recorded daily and reported weekly. • 4. Blood Collection and Laboratory Investigations • Blood samples for were collected from all animals on day 15. The animals were fasted overnight before blood sampling but allowed access to water ad libitum for hematology and biochemistry. Blood samples were drawn from the retro-orbital plexus using a micro-hematocrit heparinized glass capillary tube. Blood samples were centrifuged (3500 rpm) and after centrifugation plasma was separated for further analysis.
substance,measurement,setting,value
"NH2-Ala-Cys-Asp-Thr-Ala-Ala-Cys-Val-Leu-Gly-Arg-Leu-Ser-Gln-Glu-Leu-His-Arg-Leu-Gln-Thr-Tyr-Pro-Arg-Thr-Asn-Val-Gly-Ser-Lys-Ala-Phe-NH2 (H-ACDTAACVLGRLSQELHRLQTYPRTNVGSKAF-NH2; ends and bridges not checked) [SEQ ID NO: 1, peptide CGRP receptor antagonist]",total number of retinal astrocytes,retinal astrocytes,no differences
same,"total number of optic nerve axons, increase vs optic nerves from contralateral control eyes",optic nerve axons; increase,1.7%
same,"total number of optic nerve axons, lasered vs contralateral control eyes",optic nerve axons,did not differ significantly; also recorded: smallest decrease in the total number of axons
same,"total number of optic nerve axons, lasered vs contralateral control eyes",optic nerve axons; listed as CGRP antagonist,slight increase
same,food consumption,[1]; all study groups,normal
same,body weight among the groups,[1],no statistically significant difference
same,mortality or morbidity,"[1]; 100, 300, 1000 mcg/kg",no mortality or morbidity
same,clinical signs,"[1]; high dose = 1000 mcg/kg, all animals normalized from day 12",no clinical signs were observed during the entire study period except for four males from the high dose group that showed lethargy on day 10
